# Assay results published in ChEMBL document CHEMBL1201862, “PubChem BioAssay data set” (2004).
# Activity calls are given as the source filed them.
# Assays:
# Escherichia coli = test: microbe, parasite or virus in culture
# [1] = target: T1, High affinity choline transporter 1 (Homo sapiens, UniProt Q9GZV3); test: human choline transporter blockers, potency – cell-based, 5-point CRC, membrane potential dye, dose response (AID 504840); format: functional
# T1 sequence (Q9GZV3 whole entry): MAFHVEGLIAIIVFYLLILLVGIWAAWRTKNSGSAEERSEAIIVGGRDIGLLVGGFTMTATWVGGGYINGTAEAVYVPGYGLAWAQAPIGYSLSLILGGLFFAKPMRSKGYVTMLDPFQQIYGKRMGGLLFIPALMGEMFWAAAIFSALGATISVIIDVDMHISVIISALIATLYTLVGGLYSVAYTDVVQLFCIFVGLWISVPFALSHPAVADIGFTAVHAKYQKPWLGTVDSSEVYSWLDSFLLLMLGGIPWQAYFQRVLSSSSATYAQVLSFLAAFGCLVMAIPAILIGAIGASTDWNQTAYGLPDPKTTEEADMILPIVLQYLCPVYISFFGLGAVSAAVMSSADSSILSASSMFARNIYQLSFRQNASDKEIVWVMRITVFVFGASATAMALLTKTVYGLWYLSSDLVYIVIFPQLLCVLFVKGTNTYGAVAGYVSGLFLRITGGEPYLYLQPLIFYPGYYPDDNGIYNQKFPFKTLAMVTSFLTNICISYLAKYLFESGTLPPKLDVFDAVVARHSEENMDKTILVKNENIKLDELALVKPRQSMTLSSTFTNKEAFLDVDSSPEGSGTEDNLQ
# Cytochrome P450 2C9 = Cytochrome P450 2C9 (Homo sapiens, UniProt P11712)
# Cytochrome P450 2C19 = Cytochrome P450 2C19 (Homo sapiens, UniProt P33261); test: Cytochrome panel assay with activity outcomes. Panel member name: p450-cyp2c19 Compounds with AC50 equal or less than 10 uM are considered active; format: functional; settings: read-out: AC50
# [2] = target: Dual specificity tyrosine-phosphorylation-regulated kinase 1A (Rattus norvegicus, UniProt Q63470); format: biochemical, Homo sapiens
# Sequence of Cytochrome P450 2C19 (P33261 whole entry): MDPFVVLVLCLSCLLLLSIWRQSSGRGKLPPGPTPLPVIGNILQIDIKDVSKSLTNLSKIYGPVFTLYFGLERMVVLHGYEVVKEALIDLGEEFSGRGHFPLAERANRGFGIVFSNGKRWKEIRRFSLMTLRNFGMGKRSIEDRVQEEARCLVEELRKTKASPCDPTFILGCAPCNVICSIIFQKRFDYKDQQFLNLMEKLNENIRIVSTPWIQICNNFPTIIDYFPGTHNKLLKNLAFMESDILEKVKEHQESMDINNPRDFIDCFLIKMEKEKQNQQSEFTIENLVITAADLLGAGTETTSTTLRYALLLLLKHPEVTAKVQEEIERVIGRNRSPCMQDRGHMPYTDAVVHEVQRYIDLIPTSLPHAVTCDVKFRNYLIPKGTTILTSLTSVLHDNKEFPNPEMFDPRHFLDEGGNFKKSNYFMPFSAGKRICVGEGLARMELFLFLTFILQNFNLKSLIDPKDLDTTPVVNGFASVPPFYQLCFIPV
# Sequence of Cytochrome P450 2C9 (P11712 whole entry): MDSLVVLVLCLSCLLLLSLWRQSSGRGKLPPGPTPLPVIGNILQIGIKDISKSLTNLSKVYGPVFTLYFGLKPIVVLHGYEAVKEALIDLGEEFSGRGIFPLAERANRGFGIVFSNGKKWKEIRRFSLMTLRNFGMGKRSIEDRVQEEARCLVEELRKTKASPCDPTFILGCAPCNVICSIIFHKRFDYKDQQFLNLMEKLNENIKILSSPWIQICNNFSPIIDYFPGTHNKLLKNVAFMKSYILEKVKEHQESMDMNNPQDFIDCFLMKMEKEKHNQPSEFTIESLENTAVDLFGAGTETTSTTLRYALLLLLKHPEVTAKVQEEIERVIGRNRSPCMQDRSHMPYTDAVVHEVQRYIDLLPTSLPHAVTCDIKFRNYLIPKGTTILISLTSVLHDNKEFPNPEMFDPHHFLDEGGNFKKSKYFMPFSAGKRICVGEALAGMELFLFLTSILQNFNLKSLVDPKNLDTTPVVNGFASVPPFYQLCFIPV
structure (smiles),measurement,setting,value
COc1ccc(C(=O)Nc2cnn(Cc3ccc(Cl)cc3)c2)cc1OC,AC50,Escherichia coli,96.5 µM (active)
CCCn1c2ccccc2c2cnn(CC(=O)NCCCN3CCCC(C)C3)c(=O)c21 (stereo not given),IC50,[1],15.1 µM (active)
NC1=NC(=O)/C(=C/c2cccs2)S1,AC50,Cytochrome P450 2C9,inconclusive
same,AC50,Cytochrome P450 2C19,25.1 µM (inconclusive)
same,AC50,[2],1.21 µM (active)
